Source: US20080293696A1, “2-Aminoarylcarboxamides Useful as Cancer Chemotherapeutic Agents” (Bayer Pharmaceuticals Corporation, priority 2004, published 2008)
Structures can show the parent of a compound that is named as a salt.

Tested on: PAKT/PKB (p-(S473) AKT) in H209 small cell lung carcinoma cells stimulated with Stem Cell Factor
Test: PAKT/PKB Cytoblot Assay with H209 cells (SCF-stimulated p-(S473) AKT)
Assay type: cell-based
Details: Homo sapiens, NCI-H209, compound 1 hour, SCF 25 ng/mL 5 minutes, group: between 500 nM and 1 μM (units in value)
Procedure: PAKT/PKB Cytoblot Assay Protocol with H209 Cells
H209 small cell lung carcinoma cells in log phase were plated at 50,000 cells/well in 96-well poly-lysine coated, clear bottom/black-sided plates (BD Cat # 354640) in 100 μl RPMI medium containing 0.1% (w/v) BSA, and incubated overnight at 37° C. in 5% CO2 incubator. The following day, compounds (10 mM stock solutions in DMSO) were added to the plates to generate final concentrations of 0.0, 0.01, 0.03, 0.1, 0.3, 1.0, 3.0 and 10 μM for IC50 determinations and incubated for 1 hour at 37° C. Cells were then left untreated or stimulated with Stem Cell Factor (SCF: Biosource Cat # PHC2116) at a final concentration of 25 ng/mL for 5 minutes at 37° C. in 5% CO2 incubator. The media was then removed using a vacuum manifold and the cells were washed once with Tris Buffered Saline (TBS).
Cells were then fixed by adding 200 μl of cold 3.7% (v/v) formaldehyde in TBS to each well for 15 minutes at 4° C. After removal of the formaldehyde, the cells were treated with the addition of 50 μl of methanol (at −20° C.) to each well for 5 minutes. After removal of the methanol, […] of 1% (w/v) BSA in TBS was added to each well to block non-specific antibody binding sites and the plate was incubated at room temperature for 30 minutes.
After removal of the blocking buffer, 50 μl of p-(S473) AKT rabbit polyclonal antibody (Cell Signaling Cat # 9277S) was added at a dilution of 1:250 in 0.1% (w/v) BSA in TBS, and the plate was incubated at room temperature for 1 hour. Plates were then washed 3 times with cold TBS containing 0.05% (v/v) Tween 20 (TBS-T) and […] of Horseradish peroxidase (HRP)-conjugated goat-anti-rabbit antibody (Amersham Cat # NA934V) at a dilution of 1:250 in TBS-T was added and the plate was incubated at room temperature for 1 h. After washing with ice-cold TBS-T four times, 100 μl of Enhanced Chemiluminescence (ECL) reagent (Amersham Cat# RPN2209) was added to each well and mixed on a mini-orbital shaker for 1 min. The plate was then read on a Perkin Elmer Victor 5 Multilabel Counter (#1420-0421).

Row | IC50 [nM] | Structure (SMILES)
1 | 500 to 1000 | COCCOCC(=O)Nc1cc(CNc2ccccc2C(=O)Nc2ccc3c(c2)OC(F)(F)O3)ccn1 [Example 154, N-(2,2-difluoro-1,3-benzodioxol-5-yl)-2-{[(2{[(2-methoxyethoxy)acetyl]amino}pyridin-4-yl)methyl]amino}benzamide]
2 | 500 to 1000 | CCN(CC)CCCC(C)NC(=O)c1cc(CNc2ccccc2C(=O)Nc2ccc3c(c2)OC(F)(F)O3)ccn1 (stereo not drawn) [Example 108, N-[4-(diethylamino)-1-methylbutyl]-4-{[(2-{[(2,2-difluoro-1,3-benzodioxol-5-yl)amino]carbonyl}phenyl)amino]methyl}pyridine-2-carboxamide]
3 | 500 to 1000 | O=C(NCCCN1CCCCC1)c1cc(CNc2ccccc2C(=O)Nc2ccc3c(c2)OC(F)(F)O3)ccn1 [Example 98, 4-{[(2-{[(2,2-difluoro-1,3-benzodioxol-5-yl)amino]carbonyl}phenyl)amino]methyl}-N-(3-piperidin-1-ylpropyl)pyridine-2-carboxamide]

Further lines, the compound ahead of its results:

Row | Structure (SMILES) | IC50 [nM]
4 | COc1ccc(NC(=O)Nc2cc(CNc3ccccc3C(=O)Nc3ccc4c(c3)OC(F)(F)O4)ccn2)cc1 [Example 163, N-(2,2-difluoro-1,3-benzodioxol-5-yl)-2-({[2-({[(4-methoxyphenyl)amino]carbonyl}amino)pyridin-4-yl]methyl}amino)benzamide] | 500 to 1000
5 | O=C(NCCc1cnc[nH]1)c1cc(CNc2ccccc2C(=O)Nc2ccc3c(c2)OC(F)(F)O3)ccn1 [Example 94, 4-{[(2-{[(2,2-difluoro-1,3-benzodioxol-5-yl)amino]carbonyl}phenyl)amino]methyl}-N-[2-(1H-imidazol-5-yl)ethyl]pyridine-2-carboxamide] | 500 to 1000

Same assay, conditions: Homo sapiens, NCI-H209, compound 1 hour, SCF 25 ng/mL 5 minutes, group: between 1 and 3 μM

Row | IC50 [nM] | Structure (SMILES)
6 | 1000 to 3000 | COc1cccc(C(=O)Nc2ccc3c(c2)OC(F)(F)C(F)(F)O3)c1NCc1ccncc1 [Example 7, 3-methoxy-2-[(pyridin-4-ylmethyl)amino]-N-(2,2,3,3-tetrafluoro-2,3-dihydro-1,4-benzodioxin-6-yl)benzamide]
7 | 1000 to 3000 | O=C(NC1CCN(Cc2ccccc2)C1)c1cc(CNc2ccccc2C(=O)Nc2ccc3c(c2)OC(F)(F)O3)ccn1 (stereo not drawn) [Example 118, N-(1-benzylpyrrolidin-3-yl)-4-{[(2-{[(2,2-difluoro-1,3-benzodioxol-5-yl)amino]carbonyl}phenyl)amino]methyl}pyridine-2-carboxamide]
8 | 1000 to 3000 | O=C(NCCc1cccs1)c1cc(CNc2ccccc2C(=O)Nc2ccc3c(c2)OC(F)(F)O3)ccn1 [Example 128, 4-{[(2-{[(2,2-difluoro-1,3-benzodioxol-5-yl)amino]carbonyl}phenyl)amino]methyl}-N-[2-(2-thienyl)ethyl]pyridine-2-carboxamide]

Same assay, conditions: Homo sapiens, NCI-H209, compound 1 hour, SCF 25 ng/mL 5 minutes, group: less than 500 nM

Row | IC50 [nM] | Structure (SMILES)
9 | < 500 | N#Cc1cc(CNc2ccccc2C(=O)Nc2ccc3c(c2)C(F)(F)OC(F)(F)O3)ccn1 [Example 23, 2-{[(2-cyanopyridin-4-yl)methyl]amino}-N-(2,2,4,4-tetrafluoro-4H-1,3-benzodioxin-6-yl)benzamide]
10 | < 500 | COCCNc1cc(CNc2ccccc2C(=O)Nc2ccc3c(c2)OC(F)(F)O3)ccn1 [Example 135, N-(2,2-difluoro-1,3-benzodioxol-5-yl)-2-[({2-[(2-methoxyethyl)amino]pyridin-4-yl}methyl)amino]benzamide trifluoroacetate]
11 | < 500 | O=C(Nc1ccc2c(c1)OC(F)(F)O2)c1ccccc1NCc1ccnc(NCCOCCO)c1 [Example 138, N-(2,2-difluoro-1,3-benzodioxol-5-yl)-2-{[(2-{[2-(2-hydroxyethoxy)ethyl]amino}pyridin-4-yl)methyl]amino}benzamide trifluoroacetate(salt)]
12 | < 500 | N#Cc1cc(CNc2ccccc2C(=O)Nc2ccc3c(c2)OC(F)(F)O3)ccn1 [Example 25, 2-{[(2-cyanopyridin-4-yl)methyl]amino}-N-(2,2-difluoro-1,3-benzodioxol-5-yl)benzamide]
13 | < 500 | CS(=O)(=O)CCNC(=O)c1cc(CNc2ccccc2C(=O)Nc2ccc3c(c2)OC(F)(F)O3)ccn1 [Example 83, 4-{[(2-{[(2,2-Difluoro-1,3-benzodioxol-5-yl)amino]carbonyl}phenyl)amino]methyl}-N-[2-(methylsulfonyl)ethyl]pyridine-2-carboxamide]
14 | < 500 | CN(C)c1nccc(CNc2ccccc2C(=O)Nc2ccc3c(c2)OC(F)(F)O3)n1 [Example 48, N-(2,2-difluoro-1,3-benzodioxol-5-yl)-2-({[2-(dimethylamino)pyrimidin-4-yl]methyl}amino)benzamide]
15 | < 500 | CCCCNC(=O)Nc1cc(CNc2ccccc2C(=O)Nc2ccc3c(c2)OC(F)(F)O3)ccn1 [Example 170, 2-{[(2-{[(butylamino)carbonyl]amino}pyridin-4-yl)methyl]amino}-N-(2,2-difluoro-1,3-benzodioxol-5-yl)benzamide]

The next lines start with the compound.

Row | Structure (SMILES) | IC50 [nM]
16 | O=C(NCCO)c1cc(CNc2ccccc2C(=O)Nc2ccc3c(c2)OC(F)(F)O3)ccn1 [Example 91, 4-{[(2-{[(2,2-difluoro-1,3-benzodioxol-5-yl)amino]carbonyl}phenyl)amino]methyl}-N-(2-hydroxyethyl)pyridine-2-carboxamide] | < 500
17 | CNC(=O)c1cc(CNc2ccc(F)cc2C(=O)Nc2ccc3c(c2)OC(F)(F)O3)ccn1 [Example 31, 4-{[(2-{[(2,2-difluoro-1,3-benzodioxol-5-yl)amino]carbonyl}-4-fluorophenyl)amino]methyl}-N-methylpyridine-2-carboxamide] | < 500
18 | O=C(Nc1ccc2c(c1)OC(F)(F)O2)c1ccccc1NCc1ccnc(NCC2CCCO2)c1 (stereo not drawn) [Example 148, N-(2,2-difluoro-1,3-benzodioxol-5-yl)-2-[({2-[(tetrahydrofuran-2-ylmethyl)amino]pyridin-4-yl}methyl)amino]benzamide trifluoroacetate] | < 500
19 | CN(C)CCCNC(=O)c1cc(CNc2ccccc2C(=O)Nc2ccc3c(c2)OC(F)(F)O3)ccn1 [Example 86, 4-{[(2-{[(2,2-difluoro-1,3-benzodioxol-5-yl)amino]carbonyl}phenyl)amino]methyl}-N-[3-(dimethylamino)propyl]pyridine2-carboxamide] | < 500
20 | CNC(=O)Nc1cc(CNc2ccccc2C(=O)Nc2ccc3c(c2)OC(F)(F)O3)ccn1 [Example 165, N-(2,2-difluoro-1,3-benzodioxol-5-yl)-2-{[(2-{[(methylamino)carbonyl]amino}pyridin-4-yl)methyl]amino}benzamide] | < 500
21 | CS(=O)(=O)Nc1cc(CNc2ccccc2C(=O)Nc2ccc3c(c2)OC(F)(F)O3)ccn1 [Example 175, N-(2,2-difluoro-1,3-benzodioxol-5-yl)-2-[({2-[(methylsulfonyl)amino]pyridin-4-yl}methyl)amino]benzamide] | < 500
22 | CCNC(=O)c1cc(CNc2ccc(F)cc2C(=O)Nc2ccc3c(c2)OC(F)(F)O3)ccn1 [Example 46, 4-{[(2-{[(2,2-difluoro-1,3-benzodioxol-5-yl)amino]carbonyl}-4-fluorophenyl)amino]methyl}-N-ethylpyridine-2-carboxamide] | < 500
23 | COCC(=O)Nc1cc(CNc2ccccc2C(=O)Nc2ccc3c(c2)OC(F)(F)O3)ccn1 [Example 155, N-(2,2-difluoro-1,3-benzodioxol-5-yl)-2-[({2-[(methoxyacetyl)amino]pyridin-4-yl}methyl)amino]benzamide] | < 500
24 | CNc1nccc(CNc2ccccc2C(=O)Nc2ccc3c(c2)OC(F)(F)O3)n1 [Example 49, N-(2,2-difluoro-1,3-benzodioxol-5-yl)-2-({[2-(methylamino)pyrimidin-4-yl]methyl}amino)benzamide] | < 500
25 | O=C(Nc1ccc2c(c1)OC(F)(F)C(F)(F)O2)c1ccccc1NCc1ccncc1 [Example 6, 2-[(pyridin-4-ylmethyl)amino]-N-(2,2,3,3-tetrafluoro-2,3-dihydro-1,4-benzodioxin-6-yl)benzamide] | < 500
26 | CNC(=O)c1cc(CNc2ccccc2C(=O)Nc2ccc3c(c2)OC(F)(F)C(F)(F)O3)ccn1 [Example 3, N-methyl-4-{[(2-{[(2,2,3,3-tetrafluoro-2,3-dihydro-1,4-benzodioxin-6-yl)amino]carbonyl}phenyl)amino]methyl}pyridine-2-carboxamide] | < 500
27 | COc1cccc(NCc2ccncc2)c1C(=O)Nc1ccc2c(c1)OC(F)(F)O2 [Example 11, N-(2,2-difluoro-1,3-benzodioxol-5-yl)-2-methoxy-6-[(pyridin-4-ylmethyl)amino]benzamide] | < 500
